Assays:
[1] = molecular target: T1, human ALK2 R206H (Homo sapiens, UniProt Q04771, R206H); assay: Cell-based ALK2-R206H cell activity assay (Smad1-Ser463/Ser465 phosphorylation by AlphaLISA in HEK293-ALK2-R206H cells); details: phospho-Smad1 AlphaLISA, read-out: Cell Line (Cell Assay, IC50 class)
T1 construct: expressed in transfected cells; host or cells: HEK293 (ATCC CRL1573), lentivirus transduction, blasticidin selection
T1 sequence (Q04771 21-509 R206H): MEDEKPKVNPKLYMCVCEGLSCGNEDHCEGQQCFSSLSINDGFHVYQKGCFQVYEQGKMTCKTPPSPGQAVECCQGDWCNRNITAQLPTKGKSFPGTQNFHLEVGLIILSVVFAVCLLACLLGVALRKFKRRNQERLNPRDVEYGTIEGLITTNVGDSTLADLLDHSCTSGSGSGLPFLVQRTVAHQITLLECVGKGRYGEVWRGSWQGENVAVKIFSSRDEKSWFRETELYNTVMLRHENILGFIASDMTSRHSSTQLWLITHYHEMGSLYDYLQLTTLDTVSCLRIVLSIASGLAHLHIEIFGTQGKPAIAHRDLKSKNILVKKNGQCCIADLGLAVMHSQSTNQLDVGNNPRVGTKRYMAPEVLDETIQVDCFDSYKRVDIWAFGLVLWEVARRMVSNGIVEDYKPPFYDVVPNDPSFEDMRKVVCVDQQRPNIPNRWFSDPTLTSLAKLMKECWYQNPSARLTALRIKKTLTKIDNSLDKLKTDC
Method in brief: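 HEK293 stable line expressing human ALK2 R206H with C-terminal FLAG, plated overnight in serum-free medium. Cells were treated 2-3 h with compound over 10 3-fold doses, top 10 μM or 1 μM, in duplicate. Phospho-Smad1 Ser463/465 in lysate was read by AlphaLISA; IC50 was normalised to DMSO (0%) and 1 μM LDN193189 (100%).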

[2] = molecular target: T2, ALK2R206H (mutant ALK2, N-terminally tagged with GST) (Homo sapiens, UniProt Q04771, R206H); assay: ALK binding assay (LANTHASCREEN TR-FRET competitive binding, displacement of Kinase Tracer 178); details: read-out: Binding Assay (IC50 class)
T2 construct: purchased Carna Bioscience or ThermoFisher 09-148 or PV6232
T2 sequence (Q04771 21-509 R206H): T1 sequence (Q04771 21-509 R206H)
Method in brief: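 GST-tagged ALK2 R206H (2-5 nM) mixed with Eu-anti-GST antibody (4-10 nM), Kinase Tracer 178 (50 nM, near its Kd) and compound titration (1% DMSO) in Kinase Buffer A, 30 min at room temperature. Tracer displacement read as TR-FRET ratio, normalized to controls; IC50 from 4-parameter fit.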

IC50 [1] [nM] | IC50 [2] [nM] | Structure (SMILES)
≤ 100 | ≤ 10 | Cn1cc(-c2cc3c(N4CCN(C(=O)OC5CCC5)CC4)ccnc3[nH]2)cn1 [Compound 77]
≤ 100 | ≤ 10 | COC1(c2ccc(-c3cc4c(N5CCN(C(=O)OC6COC6)CC5)ccnc4[nH]3)nc2)CCN(C[C@@H](C)F)CC1 [Compound 479]
≤ 100 | ≤ 10 | CC(C)(C#N)c1ccc(-c2cc3c(N4CCN(C(=O)C5CC5)CC4)ccnc3[nH]2)cc1 [Compound 252]
≤ 100 | ≤ 10 | Cn1cnc(-c2cc3c(N4CCN(C(=O)O[C@H]5C[C@@H](F)C5)CC4)ccnc3[nH]2)c1 [Compound 160]
100 to 500 | ≤ 10 | Cc1cc(-c2cc3c(N4CCN(C(=O)OC5COC5)CC4)ccnc3[nH]2)sn1 [Compound 171]
≤ 100 | ≤ 10 | Cn1cc(-c2cc3c(N4CCN(C(=O)OC5COC5)CC4)ccnc3[nH]2)cn1 [Compound 90]
100 to 500 | ≤ 10 | Cn1cc(-c2[nH]c3nccc(N4CCN(C(=O)C5CC5)CC4)c3c2Br)cn1 [Compound 320]
100 to 500 | ≤ 10 | Cn1cc(-c2cc3c(N4CCN(C(=O)OCCC#N)CC4)ccnc3[nH]2)cn1 [Compound 71]
≤ 100 | ≤ 10 | N#Cc1ccc(-c2cc3c(N4CCN(C(=O)C5CC5)CC4)ccnc3[nH]2)cc1 [Compound 45]
100 to 500 | ≤ 10 | CCOC(=O)N1CCN(c2ccnc3[nH]c(-c4nc(C)cs4)cc23)CC1 [Compound 48]
≤ 100 | ≤ 10 | O=C(OC1CC1)N1CCN(c2ccnc3[nH]c(-c4nc5c(s4)COCC5)cc23)CC1 [Compound 311]
≤ 100 | ≤ 10 | C[C@H](F)COC(=O)N1CCN(c2ccnc3[nH]c(-c4cnn(C)c4)cc23)CC1 [Compound 116]
> 500 | 10 to 50 | Cn1cc(-c2cc3c(N4CCN(C(=O)CC(F)(F)F)CC4)ccnc3[nH]2)cn1 [Compound 131]
≤ 100 | ≤ 10 | Cn1cc(-c2[nH]c3nccc(N4CCN(C(=O)[C@H]5CC[C@H](C#N)CC5)CC4)c3c2C#N)cn1 [Compound 374]
≤ 100 | ≤ 10 | Cn1cnc(-c2[nH]c3nccc(N4CCN(C(=O)O[C@@H]5CCC5(F)F)CC4)c3c2C#N)c1 [Compound 368]
> 500 | ≤ 10 | CC1OCC1OC(=O)N1CCN(c2ccnc3[nH]c(-c4cnn(C)c4)cc23)CC1 (centres unmarked) [Compound 155]
≤ 100 | ≤ 10 | O=C(C1CC1)N1CCN(c2ccnc3[nH]c(-c4ccc(N5CCNC6(COC6)C5)cc4)cc23)CC1 [Compound 437]
≤ 100 | ≤ 10 | Cc1nc(-c2[nH]c3nccc(N4CCN(C(=O)OC5COC5)CC4)c3c2C#N)cs1 [Compound 303]
100 to 500 | ≤ 10 | N#Cc1cc(-c2cc3c(N4CCN(C(=O)OC5COC5)CC4)ccnc3[nH]2)cs1 [Compound 227]
100 to 500 | ≤ 10 | O=C(OC1COC1)N1CCN(c2ccnc3[nH]c(-c4ccccn4)cc23)CC1 [Compound 66]
≤ 100 | ≤ 10 | CC(C)N1CCC[C@@H](c2ccc(-c3cc4c(N5CCN(C(=O)OC6COC6)CC5)ccnc4[nH]3)cc2)C1 [Compound 466]
≤ 100 | ≤ 10 | Cn1cc(-c2cc3c(N4CCN(C(=O)O[C@H]5C[C@@H](F)C5)CC4)ccnc3[nH]2)cn1 [Compound 161]
100 to 500 | ≤ 10 | CCOC(=O)N1CCN(c2ccnc3[nH]c(-c4cc(C)n(C)n4)cc23)CC1 [Compound 39]
≤ 100 | ≤ 10 | O=C(C1CC1)N1CCN(c2ccnc3[nH]c(-c4ccc(C5CCCOC5)cc4)cc23)CC1 (centres unmarked) [Compound 328]
≤ 100 | ≤ 10 | C[C@@H](CF)OC(=O)N1CCN(c2ccnc3[nH]c(-c4cnn(C)c4)cc23)CC1 [Compound 117]
> 500 | ≤ 10 | Cn1cc(-c2cc3c(N4CCN(C(=O)[C@H]5CC[C@H](O)CC5)CC4)ccnc3[nH]2)cn1 [Compound 224]
100 to 500 | ≤ 10 | CCNC(=O)c1nc(-c2cc3c(N4CCN(C(=O)OC5COC5)CC4)ccnc3[nH]2)cs1 [Compound 415]
≤ 100 | ≤ 10 | Cc1nc(-c2[nH]c3nccc(N4CCN(C(=O)OC5COC5)CC4)c3c2C#N)cn1C [Compound 288]
